Source: patent US9260429B2, “Pyrido[3,4-B]indoles and methods of use” (Medivation Technologies, Inc., priority 2008, dated 2016)
Read-outs that look alike come from different tables or passages of the source.

Legend:
[1] = biological target: T1, human recombinant serotonin (5-Hydroxytryptamine) 5-HT2A receptor (Homo sapiens, UniProt P28223); test: Serotonin 5-HT2A radioligand binding ([3H]Ketanserin); conditions: for inhibition at 0.01 µM: compound concentration 10 nM; for inhibition at 0.03 µM: compound concentration 0.03 μM; for inhibition at 0.1 µM: compound concentration 0.1 μM; for inhibition at 0.3 µM: compound concentration 0.3 μM
T1 construct: expressed in transfected cells; host or cells: CHO-K1 cells
Method in brief: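 Membranes from CHO-K1 cells expressing the receptor, in 50 mM Tris-HCl pH 7.4, incubated 60 min at 25° C with 0.5 nM [3H]Ketanserin; 1 μM Mianserin defines non-specific binding. Filtration and counting; values are % inhibition of specific binding at 1 μM or lower, 1% DMSO.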

[2] = biological target: T2, human recombinant histamine H1 receptor (Homo sapiens, UniProt P35367); test: Histamine H1 radioligand binding ([3H]Pyrilamine); conditions: for inhibition at 3 µM: compound concentration 3 μM
T2 construct: expressed in transfected cells; host or cells: CHO cells
Method in brief: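 Binding to the human recombinant histamine H1 receptor, expressed in CHO cells, was measured in a modified Tris-HCl buffer (50 mM Tris-HCl, pH 7.4, 2 mM MgCl2, 100 mM NaCl, 250 mM Sucrose). Compounds were incubated with 1.2 nM [3H]Pyrilamine for 180 minutes at 25° C, with 1 μM pyrilamine defining non-specific binding. After filtration and washing, filter counts gave percent inhibition of specific binding.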

[3] = biological target: T3, human recombinant adrenergic α1D receptor (Homo sapiens, UniProt P25100); test: Adrenergic α1D radioligand binding ([3H]Prozosin)
T3 construct: expressed in transfected cells; host or cells: HEK-293 cells
T3 sequence (P25100 1-572): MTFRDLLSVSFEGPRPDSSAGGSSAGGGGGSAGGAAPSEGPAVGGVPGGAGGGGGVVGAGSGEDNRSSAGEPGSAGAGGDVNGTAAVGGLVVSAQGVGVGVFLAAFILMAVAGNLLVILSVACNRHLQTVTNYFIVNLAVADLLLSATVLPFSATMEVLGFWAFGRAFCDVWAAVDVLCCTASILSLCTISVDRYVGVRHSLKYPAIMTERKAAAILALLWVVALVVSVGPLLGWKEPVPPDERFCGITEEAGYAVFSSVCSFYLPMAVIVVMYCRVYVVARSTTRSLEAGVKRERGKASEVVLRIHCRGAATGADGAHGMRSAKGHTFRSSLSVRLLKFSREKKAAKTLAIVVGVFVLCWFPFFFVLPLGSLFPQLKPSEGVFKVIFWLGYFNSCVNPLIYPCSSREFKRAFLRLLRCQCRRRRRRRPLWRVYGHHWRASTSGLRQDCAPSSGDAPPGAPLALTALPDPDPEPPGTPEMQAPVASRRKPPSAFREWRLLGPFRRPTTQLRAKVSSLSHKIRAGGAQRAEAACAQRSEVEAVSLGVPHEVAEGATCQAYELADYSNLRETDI
Method in brief: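 Membranes from HEK-293 cells expressing recombinant α1D receptor, in 50 mM Tris-HCl pH 7.4, incubated with 0.6 nM [3H]prazosin for 60 min at 25 °C; non-specific binding defined with 10 μM phentolamine. Filtration and counting.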

[4] = biological target: T4, human recombinant dopamine D2L receptor (Homo sapiens, UniProt P14416); test: Dopamine D2L radioligand binding ([3H]Spiperone); conditions: for inhibition at 3 µM: compound concentration 3 μM; for inhibition at 10 µM: compound concentration 10 μM
T4 construct: expressed in transfected cells; host or cells: CHO cells
Method in brief: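 CHO-expressed receptor in 50 mM Tris-HCl pH 7.4 with ascorbic acid, 0.001% BSA, 150 mM NaCl; 0.16 nM [3H]spiperone, 120 min at 25 °C; nonspecific binding with haloperidol.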

[5] = biological target: T5, human recombinant serotonin (5-Hydroxytryptamine) 5-HT6 receptor (Homo sapiens, UniProt P50406); test: Serotonin 5-HT6 radioligand binding ([3H]LSD); conditions: for inhibition at 0.01 µM: compound concentration 10 nM; for inhibition at 0.03 µM: compound concentration 0.03 μM; for inhibition at 0.1 µM: compound concentration 0.1 μM; for inhibition at 0.3 µM: compound concentration 0.3 μM
T5 construct: expressed in transfected cells; host or cells: human HeLa cells
Method in brief: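 Human 5-HT6 receptor expressed in HeLa cells, in Tris-HCl pH 7.4 with 150 mM NaCl, ascorbic acid and BSA. Compounds at 1 μM or lower (1% DMSO) incubated 120 min at 37° C with 1.5 nM [3H]LSD. Non-specific binding defined with serotonin; filter counting gives % inhibition of specific binding.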

[6] = 1 h, read-out: Percent Inhibition of ligand binding Serotonin (1 μM ligand concentration) 5-HT2A
[7] = 1 μM, read-out: Binding data (Percentage Inhibition) Histamine Binding (1 μM) H1
[8] = 1 h, read-out: Percent Inhibition of ligand binding Adrenergic (1 μM ligand conc.) α1D
[9] = 2 h, 1 μM ligand conc., read-out: Percent Inhibition of ligand binding Dopamine (1 μM ligand conc.) D2L
[10] = 2 h, read-out: Percent Inhibition of ligand binding Serotonin (1 μM ligand concentration) 5-HT6
[11] = read-out: Percentage inhibition of ligand binding to 5-HT2A receptor
[12] = compound concentration 1 μM, read-out: Percentage inhibition of ligand binding to 5-HT2A receptor
[13] = compound concentration 1 μM, read-out: Percentage inhibition of ligand binding to H1 receptor
[14] = read-out: Percentage inhibition of ligand binding to H1 receptor
[15] = compound concentration 1 μM, read-out: Percentage inhibition of ligand binding to Adrenergic α1D receptor
[16] = compound concentration 1 μM, read-out: Percentage inhibition of ligand binding to D2L receptor
[17] = read-out: Percentage inhibition of ligand binding to D2L receptor
[18] = read-out: Percentage inhibition of ligand binding to 5-HT6 receptor
[19] = compound concentration 1 μM, read-out: Percentage inhibition of ligand binding to 5-HT6 receptor

T4 sequence (P14416 whole entry): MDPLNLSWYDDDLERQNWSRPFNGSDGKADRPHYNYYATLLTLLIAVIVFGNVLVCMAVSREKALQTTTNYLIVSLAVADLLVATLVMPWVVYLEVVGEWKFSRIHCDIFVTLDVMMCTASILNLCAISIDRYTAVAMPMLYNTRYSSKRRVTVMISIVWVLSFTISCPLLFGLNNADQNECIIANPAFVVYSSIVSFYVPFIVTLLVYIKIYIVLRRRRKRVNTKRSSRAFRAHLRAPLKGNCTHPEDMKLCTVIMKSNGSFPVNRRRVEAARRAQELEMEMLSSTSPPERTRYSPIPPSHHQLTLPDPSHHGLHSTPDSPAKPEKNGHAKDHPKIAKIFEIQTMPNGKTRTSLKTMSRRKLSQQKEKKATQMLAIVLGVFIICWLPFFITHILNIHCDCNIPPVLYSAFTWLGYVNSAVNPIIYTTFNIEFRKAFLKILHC
T1 sequence (P28223 whole entry): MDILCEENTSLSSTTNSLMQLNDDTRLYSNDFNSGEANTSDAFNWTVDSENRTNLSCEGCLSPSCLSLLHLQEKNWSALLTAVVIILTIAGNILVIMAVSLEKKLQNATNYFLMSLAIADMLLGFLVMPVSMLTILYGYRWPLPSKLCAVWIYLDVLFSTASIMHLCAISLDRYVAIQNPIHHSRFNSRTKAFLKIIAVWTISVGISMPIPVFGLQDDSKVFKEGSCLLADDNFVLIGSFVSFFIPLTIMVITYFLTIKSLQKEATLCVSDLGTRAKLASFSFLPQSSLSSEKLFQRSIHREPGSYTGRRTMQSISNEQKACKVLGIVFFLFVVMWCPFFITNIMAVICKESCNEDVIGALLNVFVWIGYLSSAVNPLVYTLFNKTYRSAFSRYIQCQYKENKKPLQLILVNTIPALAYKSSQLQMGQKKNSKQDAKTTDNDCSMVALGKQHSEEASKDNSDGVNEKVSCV
T2 sequence (P35367 whole entry): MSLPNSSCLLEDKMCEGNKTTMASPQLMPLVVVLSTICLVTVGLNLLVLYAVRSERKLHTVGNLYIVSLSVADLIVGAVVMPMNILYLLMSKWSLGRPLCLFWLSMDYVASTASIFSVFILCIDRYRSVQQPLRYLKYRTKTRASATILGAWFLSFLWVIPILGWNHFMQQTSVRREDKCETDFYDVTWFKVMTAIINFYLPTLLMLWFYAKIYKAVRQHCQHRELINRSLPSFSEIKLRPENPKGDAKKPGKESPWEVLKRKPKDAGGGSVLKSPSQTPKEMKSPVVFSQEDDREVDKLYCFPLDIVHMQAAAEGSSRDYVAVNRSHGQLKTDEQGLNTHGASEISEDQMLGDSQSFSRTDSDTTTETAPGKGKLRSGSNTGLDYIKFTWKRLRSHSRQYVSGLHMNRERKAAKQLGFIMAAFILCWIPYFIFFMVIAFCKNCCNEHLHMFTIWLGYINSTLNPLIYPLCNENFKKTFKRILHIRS
T5 sequence (P50406 whole entry): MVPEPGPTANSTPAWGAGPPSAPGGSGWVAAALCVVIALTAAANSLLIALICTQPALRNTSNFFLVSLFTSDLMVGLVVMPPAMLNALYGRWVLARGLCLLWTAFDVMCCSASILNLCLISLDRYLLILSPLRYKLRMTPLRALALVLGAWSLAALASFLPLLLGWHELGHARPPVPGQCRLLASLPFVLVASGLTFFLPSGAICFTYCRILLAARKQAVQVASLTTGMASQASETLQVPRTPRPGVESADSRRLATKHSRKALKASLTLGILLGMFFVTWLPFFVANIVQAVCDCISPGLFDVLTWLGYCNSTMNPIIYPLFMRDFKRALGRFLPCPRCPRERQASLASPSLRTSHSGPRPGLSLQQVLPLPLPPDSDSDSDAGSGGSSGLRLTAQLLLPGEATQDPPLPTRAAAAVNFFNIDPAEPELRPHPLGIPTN

Row | Compound | inhibition at 1 µM [1, 6] [%] | inhibition at 1 µM [2, 7] [%] | inhibition at 1 µM [3, 8] [%] | inhibition at 1 µM [4, 9] [%] | inhibition at 1 µM [5, 10] [%] | further results
1 | C/C(=C\n1c2c(c3cc(C)ccc31)CCN(C)C2)c1ccc(Cl)cc1 [Compound 97, 9-(2-(4-chlorophenyl)prop-1-enyl)-2,6-dimethyl-2,3,4,9-tetrahydro-1H-pyrido[3,4-b]indole] | 97 | 20 | 66 | 15 | 72 | 
2 | C/C(=C\n1c2c(c3cc(Cl)ccc31)CCN(C)C2C)c1ccccc1F (centres unmarked) [Compound 168] | 94 | 85 | 38 | 9 | 71 | 
3 | Cc1ccc(CCn2c3c(c4cc(Cl)ccc42)CCN(C)C3C)cn1 (centres unmarked) [Compound 80] | 56 | 66 | 89 | 5 | 23 | 
4 | CC1c2c(c3cc(Cl)ccc3n2CCc2ccc(F)cc2)CCN1C (centres unmarked) [Compound 81] | 93 | 80 | 64 | 21 | 96 | 
5 | CN1CCc2c(n(CCCC(=O)N3CCCCC3)c3ccc(Cl)cc23)C1 [Compound 44, 4-(6-chloro-1,2,3,4-tetrahydro-2-methylpyrido[3,4-b]indol-9-yl)-1-(piperidin-1-yl)butan-1-one] | 73 | 62 | 61 | 8 | 12 | 
6 | COc1ccc(C(O)Cn2c3c(c4cc(C)ccc42)CCN(C)C3)cc1OC (centres unmarked) [Compound 66] | 51 | 19 | 74 | 9 | 5 | 
7 | CCC1c2c(c3cc(Cl)ccc3n2CC(C)(O)c2ccc(F)cc2)CCN1C (centres unmarked) [Compound 79] | 62 | 50 | 17 | 2 | 27 | 
8 | C/C(=C\n1c2c(c3cc(Cl)ccc31)CCN(C)C2)c1ccc(Cl)cc1 [Compound 98, 6-chloro-9-(2-(4-chlorophenyl)prop-1-enyl)-2-methyl-2,3,4,9-tetrahydro-1H-pyrido[3,4-b]indole] | 98 | 40 | 57 | 32 | 79 | 
9 | C/C(=C\n1c2c(c3cc(C)ccc31)CCN(C)C2C)c1ccccc1F (centres unmarked) [Compound 166] | 102 | 79 | 69 | 21 | 95 | inhibition at 0.01 µM [1, 11]: 15%; inhibition at 0.03 µM [1, 11]: 46%; inhibition at 0.1 µM [1, 11]: 74%; inhibition at 0.3 µM [1, 11]: 81%; inhibition at 1 µM [1, 12]: 102%; inhibition at 0.3 µM ([2]; compound concentration 0.3 μM, read-out: Percentage inhibition of ligand binding to H1 receptor): 23%; inhibition at 1 µM [2, 13]: 79%; inhibition at 3 µM [2, 14]: 77%; inhibition at 1 µM [3, 15]: 69%; inhibition at 1 µM [4, 16]: 21%; inhibition at 3 µM [4, 17]: 12%; inhibition at 10 µM [4, 17]: 50%; inhibition at 0.01 µM [5, 18]: 13%; inhibition at 0.03 µM [5, 18]: 16%; inhibition at 0.1 µM [5, 18]: 38%; inhibition at 0.3 µM [5, 18]: 55%; inhibition at 1 µM [5, 19]: 95%
10 | Cc1ccc2c(c1)c1c(n2C(=O)Cc2ccc(Cl)cc2)C(c2ccccc2)N(C)CC1 (centres unmarked) [Compound 163] | 98 | 13 | 78 | -12 | 89 | 
11 | Cc1ccc2c(c1)c1c(n2CC(O)c2ccccc2)CN(C)CC1 (centres unmarked) [Compound 67] | 77 | 35 | 85 | 21 | 51 | 
12 | Cc1ccc2c(c1)c1c(n2CC(C)(O)c2ccc(F)cc2)CN(C)CC1 (centres unmarked) [Compound 61, 1-(2,6-dimethyl-3,4-dihydro-1H-pyrido[3,4-b]indol-9(2H)-yl)-2-(4-fluorophenyl)propan-2-ol] | 86 | 49 | 49 | 41 | 61 | 
13 | CCC1c2c(c3cc(C)ccc3n2C#Cc2ccc(Cl)cc2)CCN1C (centres unmarked) [Compound 162, 9-((4-chlorophenyl)ethynyl)-1-ethyl-2,6-dimethyl-2,3,4,9-tetrahydro-1H-pyrido[3,4-b]indole] | 98 | 15 | 19 | 4 | 12 | 
14 | Cc1ccc(CCCn2c3c(c4cc(Cl)ccc42)CCN(C)C3)cn1 [Compound 56, 6-chloro-2-methyl-9-(3-(6-methylpyridin-3-yl)propyl)-2,3,4,9-tetrahydro-1H-pyrido[3,4-b]indole] | 12 | 30 | 16 | 9 | -3 | 
15 | CCC1c2c(c3cc(C)ccc3n2/C=C(\C)c2ccc(Cl)cc2)CCN1C (centres unmarked) [Compound 160, 9-(2-(4-chlorophenyl)prop-1-enyl)-1-ethyl-2,6-dimethyl-2,3,4,9-tetrahydro-1H-pyrido[3,4-b]indole] | 95 | 31 | 25 | -1 | 24 | 
16 | C/C(=C\n1c2c(c3cc(Cl)ccc31)CCN(C)C2)c1ccc(F)cc1 [Compound 90, (E)-6-chloro-9-(2-(4-fluorophenyl)prop-1-enyl)-2-methyl-2,3,4,9-tetrahydro-1H-pyrido[3,4-b]indole] | 97 | 29 | 62 | 36 | 98 | inhibition at 0.003 µM ([1]; compound concentration 3 nM, read-out: Percentage inhibition of ligand binding to 5-HT2A receptor): 1%; inhibition at 0.01 µM [1, 11]: 9%; inhibition at 0.03 µM [1, 11]: 31%; inhibition at 0.1 µM [1, 11]: 64%; inhibition at 0.3 µM [1, 11]: 87%; inhibition at 1 µM [1, 12]: 97%; inhibition at 1 µM [2, 13]: 48%; inhibition at 3 µM [2, 14]: 76%; inhibition at 10 µM ([2]; compound concentration 10 μM, read-out: Percentage inhibition of ligand binding to H1 receptor): 94%; inhibition at 1 µM [3, 15]: 62%; inhibition at 1 µM [4, 16]: 39%; inhibition at 3 µM [4, 17]: 70%; inhibition at 10 µM [4, 17]: 91%; inhibition at 0.003 µM ([5]; compound concentration 3 nM, read-out: Percentage inhibition of ligand binding to 5-HT6 receptor): 16%; inhibition at 0.01 µM [5, 18]: 32%; inhibition at 0.03 µM [5, 18]: 58%; inhibition at 0.1 µM [5, 18]: 81%; inhibition at 0.3 µM [5, 18]: 94%; inhibition at 1 µM [5, 19]: 98%
